Source: US20260028326A1, “COMPOUND BASED ON ISOINDOLINE-SUBSTITUTED GLUTARIMIDE BACKBONE AND USE THEREOF” (GLUETACS THERAPEUTICS (SHANGHAI) CO., LTD., priority 2022, published 2026)
pIC50: −log10 of the molar value.

Columns and labels:
[1] = system: Mino cells; assay: Tumor cell proliferation IC50 (CCK-8), Mino; conditions: Homo sapiens, 72 h, read-out: IC50 for inhibiting the proliferation of tumor cells, Mino;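 also: cell viability assessed with CCK-8 reagent after compound exposure, IC50 derived from plotted growth inhibition curves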
Procedure: (§1) The tumor cells used herein were cultured in a cell culture medium listed in table A at 37° C. in an incubator with 5% CO2.
(§2) After the cells were treated with the compounds of the present disclosure for a period of time, the cell viability detection reagent was added to the culture medium for cell viability assessment according to the instructions provided with the CCK-8 kit. […] The growth inhibition of the compounds of the present disclosure on cells was plotted by Prism Graphpad software, and the IC50 values of the compounds of the present disclosure were calculated therefrom.

[2] = target: human Cereblon WT GST-tagged protein (Homo sapiens (Human), UniProt Q96SW2); assay: CRBN-binding affinity, HTRF (CEREBLON BINDING kit)
Method in brief: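 GST-tagged human WT Cereblon incubated with compound, then Thalidomide-Re tracer and anti-GST Eu antibody added. Displacement read by HTRF, reported as CRBN binding inhibition rate against blank control wells without protein.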

[3] = system: Kasumi-1 cells; assay: Tumor cell proliferation IC50 (CCK-8), Kasumi-1; conditions: Homo sapiens, Kasumi 1, 72 h, read-out: IC50 for inhibiting the proliferation of tumor cells, Kasumi-1
Procedure: as §1, §2

[4] = target: IKZF1 protein (Homo sapiens (Human), UniProt Q13422+Q96SW2); assay: Western-blot assay of substrate protein degradation in hPBMC, IKZF1; assay type: cell-based; conditions: hPBMC cells, compound 500 nM, 24 hours, Western blot
[5] = system: CCRF-CEM cells; assay: Tumor cell proliferation IC50 (CCK-8), CCRF-CEM; conditions: Homo sapiens, 96 h, read-out: IC50 for inhibiting the proliferation of tumor cells, CCRF-CEM;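 also: cell viability measured with CCK-8 reagent after compound treatment, IC50 taken from plotted growth inhibition curves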
Procedure: as §1, §2

[6] = system: MM.1S cells; assay: Tumor cell proliferation IC50 (CCK-8), MM.1S; conditions: Homo sapiens, MM1.S, 72 h, read-out: IC50 for inhibiting the proliferation of tumor cells, MM.1S;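 also: viability of cultured cells read by CCK-8 reagent after compound exposure, growth inhibition curves fitted to derive IC50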
[7] = target: IKZF3 protein (Homo sapiens (Human), UniProt Q96SW2+Q9UKT9); assay: Western-blot assay of substrate protein degradation in hPBMC, IKZF3; assay type: cell-based; conditions: hPBMC cells, compound 500 nM, 24 hours, Western blot
[8] = system: MV-4-11 cells; assay: Tumor cell proliferation IC50 (CCK-8), MV-4-11; conditions: Homo sapiens, MV4-11, 96 h, read-out: IC50 for inhibiting the proliferation of tumor cells, MV-4-11
Procedure: as §1, §2

[9] = target: GSPT1 protein (Homo sapiens (Human), UniProt P15170+Q96SW2); assay: Western-blot assay of substrate protein degradation in hPBMC, GSPT1; assay type: cell-based; conditions: hPBMC cells, compound 500 nM, 24 hours, Western blot
[10] = system: Daudi cells; assay: Tumor cell proliferation IC50 (CCK-8), Daudi; conditions: Homo sapiens, read-out: IC50 for inhibiting the proliferation of tumor cells, Daudi;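 also: cell viability read with CCK-8 reagent after compound exposure of Daudi cells, IC50 derived from plotted growth inhibition curves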
[11] = system: SW620 cells; assay: Tumor cell proliferation IC50 (CCK-8), SW620; conditions: Homo sapiens, SW-620, 96 h, read-out: IC50 for inhibiting the proliferation of tumor cells, SW620
Procedure: as §1, §2

[12] = Pharmacokinetic study, oral administration, mouse plasma; assay type: in vivo, mice
Procedure: The experimental animals used can be those commonly used in pharmacokinetic experiments, e.g., adult and healthy rodents (e.g., mice, rats (such as Sprague-Dawley (SD) rats), guinea pigs) or non-rodents (rabbits, dogs, and monkeys). In the present disclosure, mice were used as the experimental animals.
The experimental animals were divided into two groups: a control group (for collecting blank plasma) and an orally administered group (dosed at 10 mg/kg or 30 mg/kg). Blood samples were collected at predetermined sampling time points after administration, such as 0.25 h, 0.5 h, 1 h, 2 h, 4 h, 8 h, and 24 h post-dosing. Blank plasma was collected from the control group.
Plasma samples were preprocessed before analysis: 10 μL of 50% acetonitrile and 200 μL of internal standard solution (containing 50 ng/mL dexamethasone in acetonitrile) were added to 10 μL of plasma samples. For the blank control group, the same volume of acetonitrile was added instead of the internal standard. The processed samples were vortexed, centrifuged, and the supernatant was taken for LC-MS/MS injection analysis.
After preparing standard curves and quality control (QC) samples, the concentrations of the compounds in the plasma samples were determined by LC-MS/MS analysis. Based on the plasma concentration data obtained from LC-MS/MS analysis, the pharmacokinetic parameters of the test compounds were calculated using the non-compartmental model in the pharmacokinetic calculation software WinNonlin v8.1.

[13] = system: SU-DHL-4 cells; assay: Tumor cell proliferation IC50 (CCK-8), SU-DHL-4; conditions: Homo sapiens, SU-DHL-4, 72 h, read-out: IC50 for inhibiting the proliferation of tumor cells, SU-DHL-4
Procedure: (§3) Prior to experimentation, all cells used were correctly identified by STR profiling, and tested negative for mycoplasma through routine screenings.
as §2

[14] = system: TMD8 cells; assay: Tumor cell proliferation IC50 (CCK-8), TMD8; conditions: Homo sapiens, TMD8, 72 h, read-out: IC50 for inhibiting the proliferation of tumor cells, TMD8
Procedure: as §1, §2

[15] = system: Ramos cells; assay: Tumor cell proliferation IC50 (CCK-8), Ramos; conditions: Homo sapiens, 72 h, read-out: IC50 for inhibiting the proliferation of tumor cells, Ramos
Procedure: as §1, §2

[16] = system: MM.1R cells; assay: Tumor cell proliferation IC50 (CCK-8), MM.1R; conditions: Homo sapiens, 72 h, read-out: IC50 for inhibiting the proliferation of tumor cells, MM.1R
Procedure: as §1, §2

[17] = system: MDA-MB-231 cells; assay: Tumor cell proliferation IC50 (CCK-8), MDA-MB-231; conditions: Homo sapiens, MDA-MB-231, 96 h, read-out: IC50 for inhibiting the proliferation of tumor cells, MDA-MB-231
Procedure: as §3, §2

Sequence of IKZF1 protein (Q13422 whole entry): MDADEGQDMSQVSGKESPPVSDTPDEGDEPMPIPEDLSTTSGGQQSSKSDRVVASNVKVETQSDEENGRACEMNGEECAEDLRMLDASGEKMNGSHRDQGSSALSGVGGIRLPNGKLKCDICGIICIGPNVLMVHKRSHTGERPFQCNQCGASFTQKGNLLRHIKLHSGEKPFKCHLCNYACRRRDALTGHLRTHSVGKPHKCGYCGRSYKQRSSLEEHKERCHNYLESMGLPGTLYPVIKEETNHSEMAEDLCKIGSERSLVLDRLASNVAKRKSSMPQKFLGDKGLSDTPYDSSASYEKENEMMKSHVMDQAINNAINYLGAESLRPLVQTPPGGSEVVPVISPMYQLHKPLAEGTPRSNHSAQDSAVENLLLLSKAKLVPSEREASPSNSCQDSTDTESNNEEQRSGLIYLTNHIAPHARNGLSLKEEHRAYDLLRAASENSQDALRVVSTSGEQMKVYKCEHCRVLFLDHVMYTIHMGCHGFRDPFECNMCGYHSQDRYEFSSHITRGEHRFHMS
Sequence of IKZF1 protein (Q96SW2 whole entry): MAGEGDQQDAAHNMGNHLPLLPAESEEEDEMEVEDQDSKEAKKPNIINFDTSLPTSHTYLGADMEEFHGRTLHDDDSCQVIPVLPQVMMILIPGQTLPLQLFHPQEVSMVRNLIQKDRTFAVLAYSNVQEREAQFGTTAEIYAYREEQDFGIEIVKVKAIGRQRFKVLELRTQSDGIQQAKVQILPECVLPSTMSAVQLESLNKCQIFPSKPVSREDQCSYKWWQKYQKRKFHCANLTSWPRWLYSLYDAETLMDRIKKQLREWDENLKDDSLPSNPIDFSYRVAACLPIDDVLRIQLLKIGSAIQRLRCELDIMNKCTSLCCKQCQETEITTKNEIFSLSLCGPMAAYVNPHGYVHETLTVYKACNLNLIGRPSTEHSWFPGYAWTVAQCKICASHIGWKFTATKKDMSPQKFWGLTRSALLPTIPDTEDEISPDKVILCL
Sequence of IKZF1 protein (Q16531 whole entry partner): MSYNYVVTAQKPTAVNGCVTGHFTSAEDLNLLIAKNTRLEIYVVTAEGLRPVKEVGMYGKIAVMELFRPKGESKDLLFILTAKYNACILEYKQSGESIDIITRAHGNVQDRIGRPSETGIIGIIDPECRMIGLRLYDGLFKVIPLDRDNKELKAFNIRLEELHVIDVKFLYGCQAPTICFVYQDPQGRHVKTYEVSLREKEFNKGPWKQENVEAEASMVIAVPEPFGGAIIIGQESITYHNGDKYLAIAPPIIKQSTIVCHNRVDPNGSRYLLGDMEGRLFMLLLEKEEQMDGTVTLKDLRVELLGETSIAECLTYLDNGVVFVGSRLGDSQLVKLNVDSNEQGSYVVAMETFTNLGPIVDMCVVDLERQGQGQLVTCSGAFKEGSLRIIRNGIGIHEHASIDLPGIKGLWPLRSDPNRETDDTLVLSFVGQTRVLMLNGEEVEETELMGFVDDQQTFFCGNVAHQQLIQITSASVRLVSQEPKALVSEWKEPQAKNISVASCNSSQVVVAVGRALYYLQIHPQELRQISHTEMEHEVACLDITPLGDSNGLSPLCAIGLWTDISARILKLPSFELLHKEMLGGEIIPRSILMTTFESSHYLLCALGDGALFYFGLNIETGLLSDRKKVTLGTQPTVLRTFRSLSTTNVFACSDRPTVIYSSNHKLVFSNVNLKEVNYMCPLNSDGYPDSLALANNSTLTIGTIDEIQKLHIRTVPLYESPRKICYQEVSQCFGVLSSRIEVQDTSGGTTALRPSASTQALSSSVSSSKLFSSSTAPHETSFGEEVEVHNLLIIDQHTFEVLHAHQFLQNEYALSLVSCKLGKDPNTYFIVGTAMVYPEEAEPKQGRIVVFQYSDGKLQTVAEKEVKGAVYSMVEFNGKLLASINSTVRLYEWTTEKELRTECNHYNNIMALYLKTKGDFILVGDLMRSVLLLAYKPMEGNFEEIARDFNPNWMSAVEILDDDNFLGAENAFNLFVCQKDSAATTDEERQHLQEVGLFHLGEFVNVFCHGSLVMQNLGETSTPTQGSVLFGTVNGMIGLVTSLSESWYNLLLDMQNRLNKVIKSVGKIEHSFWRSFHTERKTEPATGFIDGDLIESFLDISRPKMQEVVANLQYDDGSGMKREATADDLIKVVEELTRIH
Sequence of GSPT1 protein (P15170 whole entry): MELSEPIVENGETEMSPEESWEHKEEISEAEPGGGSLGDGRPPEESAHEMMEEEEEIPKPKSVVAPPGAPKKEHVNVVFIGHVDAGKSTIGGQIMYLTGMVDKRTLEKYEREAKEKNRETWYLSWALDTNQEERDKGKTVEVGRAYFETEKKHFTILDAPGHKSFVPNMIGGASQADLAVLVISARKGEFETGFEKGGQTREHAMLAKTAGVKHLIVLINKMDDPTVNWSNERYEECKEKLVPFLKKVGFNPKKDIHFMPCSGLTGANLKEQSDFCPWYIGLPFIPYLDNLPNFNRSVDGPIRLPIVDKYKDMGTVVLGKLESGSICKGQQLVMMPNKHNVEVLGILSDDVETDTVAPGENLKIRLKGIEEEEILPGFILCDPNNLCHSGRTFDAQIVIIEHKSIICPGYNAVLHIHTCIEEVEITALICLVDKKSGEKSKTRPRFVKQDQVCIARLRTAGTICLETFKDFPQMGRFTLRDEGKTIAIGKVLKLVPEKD
Sequence of GSPT1 protein (Q96SW2 whole entry): as the sequence (Q96SW2 whole entry) above
Sequence of GSPT1 protein (Q16531 whole entry partner): as the sequence (Q16531 whole entry partner) above
Sequence of IKZF3 protein (Q9UKT9 whole entry): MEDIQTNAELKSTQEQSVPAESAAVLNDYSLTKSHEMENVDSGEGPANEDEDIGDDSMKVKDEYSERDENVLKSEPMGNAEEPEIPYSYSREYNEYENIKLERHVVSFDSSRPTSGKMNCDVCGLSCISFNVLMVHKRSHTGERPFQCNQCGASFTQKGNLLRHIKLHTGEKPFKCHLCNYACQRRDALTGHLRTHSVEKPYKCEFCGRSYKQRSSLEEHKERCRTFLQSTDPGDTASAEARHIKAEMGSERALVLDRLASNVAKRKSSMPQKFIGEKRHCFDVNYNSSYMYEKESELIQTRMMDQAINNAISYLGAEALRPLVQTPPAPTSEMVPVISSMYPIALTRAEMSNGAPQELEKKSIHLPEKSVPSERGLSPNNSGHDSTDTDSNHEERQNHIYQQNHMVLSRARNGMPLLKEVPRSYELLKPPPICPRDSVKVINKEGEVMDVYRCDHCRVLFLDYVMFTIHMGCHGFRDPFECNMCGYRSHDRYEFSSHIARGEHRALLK
Sequence of IKZF3 protein (Q96SW2 whole entry): as the sequence (Q96SW2 whole entry) above
Sequence of IKZF3 protein (Q16531 whole entry partner): as the sequence (Q16531 whole entry partner) above
Sequence of human Cereblon WT GST-tagged protein (Q96SW2 whole entry): as the sequence (Q96SW2 whole entry) above

For `O=C1CCC(N2Cc3cc(CC4CCN(C(=O)c5ccccc5-c5ccc(Cl)cc5)CC4)ccc3C2=O)C(=O)N1` (stereo not shown) [GT-05467, 3-(5-((1-(4′-chloro-[1,1′-biphenyl]-2-carbonyl)piperidin-4-yl)methyl)-1-oxoisoindolin-2-yl)piperidine-2,6-dione], the pIC50 [1] was 7.30 to 8.00, the pIC50 [2] was 6.28 and the pIC50 [3] was 7.30 to 8.00. The “residual substrate protein level, IKZF1” value [4] was “B (B represents a residual substrate protein level of >50%)”, the pIC50 [5] was 8.00 to 8.30 and the pIC50 [6] was 7.30 to 8.00. The “residual substrate protein level, IKZF3” value [7] was “B (B represents a residual substrate protein level of >50%)”, the pIC50 [8] was 7.30 to 8.00 and the “residual substrate protein level, GSPT1” value [9] was “A (A represents a residual substrate protein level of <50%)”. It also gave a pIC50 [10] of 6.30 to 7.00.

In the case of `O=C1CCC(N2Cc3c(ccc(CN4CCN(Cc5ccccc5-c5ccc(Cl)cc5)CC4)c3F)C2=O)C(=O)N1` (stereo not shown) [GT-03694, 3-(5-((4-((4′-chloro-[1,1′-biphenyl]-2-yl)methyl)piperazin-1-yl)methyl)-4-fluoro-1-oxoisoindolin-2-yl)piperidine-2,6-dione], the pIC50 [1] was 8.00 to 8.30, the pIC50 [2] was 6.27 and the “residual substrate protein level, IKZF1” value [4] was “A (A represents a residual substrate protein level of <50%)”. The pIC50 [11] was greater than 8.30, the “residual substrate protein level, IKZF3” value [7] was “A (A represents a residual substrate protein level of <50%)” and the “residual substrate protein level, GSPT1” value [9] was “A (A represents a residual substrate protein level of <50%)”. The AUC(0-t) ([12]; p.o. 30 mg/kg) was greater than 500 ng·h/mL and the pIC50 [13] was 6.30 to 7.00.

In the case of `O=C1CCC(N2C(=O)c3ccc(CN4CCN(Cc5ccccc5-c5ccc(Cl)cc5)CC4)cc3C2=O)C(=O)N1` (stereo not shown) [GT-05497, 5-((4-((4′-chloro-[1,1′-biphenyl]-2-yl)methyl)piperazin-1-yl)methyl)-2-(2,6-dioxopiperidin-3-yl)isoindoline-1,3-dione], the pIC50 [1] was 6.30 to 7.00, the pIC50 [3] was 6.30 to 7.00 and the “residual substrate protein level, IKZF1” value [4] was “B (B represents a residual substrate protein level of >50%)”. The pIC50 [5] was 7.00 to 7.30, the pIC50 [6] was 6.30 to 7.00 and the “residual substrate protein level, IKZF3” value [7] was “A (A represents a residual substrate protein level of <50%)”. The pIC50 [8] was 6.30 to 7.00, the “residual substrate protein level, GSPT1” value [9] was “A (A represents a residual substrate protein level of <50%)” and the pIC50 [10] was 6.00 to 6.30.

In the case of `CC1(C)CCC(CN2CCN(Cc3ccc4c(c3)CN(C3CCC(=O)NC3=O)C4=O)CC2)=C(c2ccc(F)cc2)C1` (stereo not shown) [GT-03454, 3-(5-((4-((4′-fluoro-5,5-dimethyl-3,4,5,6-tetrahydro-[1,1′-biphenyl]-2-yl)methyl)piperazin-1-yl)methyl)-1-oxoisoindolin-2-yl)piperidine-2,6-dione], the pIC50 [14] was 5.30 to 6.00, the pIC50 [15] was 5.30 to 6.00 and the pIC50 [2] was 6.39. The “residual substrate protein level, IKZF1” value [4] was “A (A represents a residual substrate protein level of <50%)”, the pIC50 [16] was 6.30 to 7.00 and the pIC50 [5] was 7.30 to 8.00. For the same compound, the “residual substrate protein level, IKZF3” value [7] was “A (A represents a residual substrate protein level of <50%)” and the “residual substrate protein level, GSPT1” value [9] was “A (A represents a residual substrate protein level of <50%)”.

`CC1(C)CCC(CN2CCN(Cc3cc(F)c4c(c3)CN(C3CCC(=O)NC3=O)C4=O)CC2)=C(c2ccc(Cl)cc2)C1` (stereo not shown) [GT-03469, 3-(5-((4-((4′-chloro-5,5-dimethyl-3,4,5,6-tetrahydro-[1,1′-biphenyl]-2-yl)methyl)piperazin-1-yl)methyl)-7-fluoro-1-oxoisoindolin-2-yl)piperidine-2,6-dione] showed a pIC50 [17] of 6.30 to 7.00, a pIC50 [2] of 5.67 and a pIC50 [5] of 5.30 to 6.00.

`CC1(C)CCC(CN2CCN(Cc3cc4c(cc3F)C(=O)N(C3CCC(=O)NC3=O)C4)CC2)=C(c2ccc(F)cc2)C1` (stereo not shown) [GT-05391, 3-(6-fluoro-5-((4-((4′-fluoro-5,5-dimethyl-3,4,5,6-tetrahydro-[1,1′-biphenyl]-2-yl)methyl)piperazin-1-yl)methyl)-1-oxoisoindolin-2-yl)piperidine-2,6-dione] showed a pIC50 [1] of 8.00 to 8.30, a pIC50 [2] of 6.24 and a pIC50 [3] of 7.30 to 8.00. For the same compound, the “residual substrate protein level, IKZF1” value [4] was “A (A represents a residual substrate protein level of <50%)”, the pIC50 [5] was greater than 8.30 and the pIC50 [6] was 8.00 to 8.30. For the same compound, the “residual substrate protein level, IKZF3” value [7] was “A (A represents a residual substrate protein level of <50%)”, the pIC50 [8] was greater than 8.30 and the “residual substrate protein level, GSPT1” value [9] was “A (A represents a residual substrate protein level of <50%)”. The pIC50 [10] was 7.30 to 8.00.

With `O=C1CCC(N2Cc3cc(CN4CCN(Cc5ccccc5-c5ccc(Cl)cc5)CC4)c(F)cc3C2=O)C(=O)N1` (stereo not shown) [GT-03695, 3-(5-((4-((4′-chloro-[1,1′-biphenyl]-2-yl)methyl)piperazin-1-yl)methyl)-6-fluoro-1-oxoisoindolin-2-yl)piperidine-2,6-dione] the pIC50 [1] was 8.00 to 8.30, the pIC50 [2] was 5.93 and the “residual substrate protein level, IKZF1” value [4] was “A (A represents a residual substrate protein level of <50%)”. For the same compound, the pIC50 [11] was 8.00 to 8.30, the “residual substrate protein level, IKZF3” value [7] was “A (A represents a residual substrate protein level of <50%)” and the “residual substrate protein level, GSPT1” value [9] was “A (A represents a residual substrate protein level of <50%)”. For the same compound, the AUC(0-t) ([12]; p.o. 30 mg/kg) was greater than 500 ng·h/mL and the pIC50 [13] was 7.00 to 7.30.

Compound `O=C1CCC(N2Cc3cc(C=C4CN(C(=O)c5ccccc5-c5ccc(Cl)cc5)C4)ccc3C2=O)C(=O)N1` (stereo not shown) [GT-05482, 3-(5-((1-(4′-chloro-[1,1′-biphenyl]-2-carbonyl)azetidin-3-ylidene)methyl)-1-oxoisoindolin-2-yl)piperidine-2,6-dione] has a pIC50 [1] of 8.00 to 8.30, a pIC50 [2] of 6.48 and a pIC50 [3] of 7.30 to 8.00. The “residual substrate protein level, IKZF1” value [4] was “B (B represents a residual substrate protein level of >50%)”, the pIC50 [5] was 8.00 to 8.30 and the pIC50 [6] was 8.00 to 8.30. The “residual substrate protein level, IKZF3” value [7] was “B (B represents a residual substrate protein level of >50%)”, the pIC50 [8] was 8.00 to 8.30 and the “residual substrate protein level, GSPT1” value [9] was “A (A represents a residual substrate protein level of <50%)”. For the same compound, the pIC50 [10] was 7.30 to 8.00.

In the case of `CC1(C)CCC(CN2CCN(Cc3ccc4c(c3)CN(C3CCC(=O)NC3=O)C4=O)CC2)=C(c2ccc(Cl)cc2)C1` (stereo not shown) [GT-02785, 3-(5-((4-((4′-chloro-5,5-dimethyl-3,4,5,6-tetrahydro-[1,1′-biphenyl]-2-yl)methyl)piperazin-1-yl)methyl)-1-oxoisoindolin-2-yl)piperidine-2,6-dione], the pIC50 [14] was 6.30 to 7.00, the pIC50 [15] was 6.30 to 7.00 and the pIC50 [17] was 7.00 to 7.30. For the same compound, the pIC50 [1] was 8.00 to 8.30, the pIC50 [2] was 5.51 and the pIC50 [3] was 7.00 to 7.30. For the same compound, the “residual substrate protein level, IKZF1” value [4] was “A (A represents a residual substrate protein level of <50%)”, the pIC50 [16] was 7.30 to 8.00 and the pIC50 [5] was 7.30 to 8.00. For the same compound, the pIC50 [11] was 7.00 to 7.30, the pIC50 [6] was greater than 8.30 and the “residual substrate protein level, IKZF3” value [7] was “A (A represents a residual substrate protein level of <50%)”. The pIC50 [8] was 7.62, the “residual substrate protein level, GSPT1” value [9] was “A (A represents a residual substrate protein level of <50%)” and the AUC(0-t) ([12]; p.o. 10 mg/kg) was greater than 500 ng·h/mL. For the same compound, the pIC50 [10] was 6.80.
